Laboratory results published in patent US8937063B2 (Trustees of Tufts College, priority 2010, dated 2015).

Experiments:
[1] = test system: high fat+fructose (HF/HS) diet hamsters; test: 18-day oral dosing lipid study in HF/HS hamsters; format: in vivo, male Golden Syrian hamsters; conditions: niacin 1200 mg/kg oral once daily 18 days, mean ± SD
Description: We examined the effects of diet modulation on the lipid profile of male Syrian Golden hamsters. Hamsters were ordered from Charles River Labs (Wilmington, Mass.), and requested to be 111-120 g in weight (correspondingly 56-61 days old). Hamsters were kept in cages of 4-5 per cage, and maintained on a standard light cycle of 12 hours on/12 hours off. All diets were obtained from Dyets, Inc. (Bethlehem, Pa.). “Normal Diet” was a standard rodent chow, catalog #5001, produced into pellets. Water and this standard chow diet were available to this group of hamsters ad libitum. Food was added to cages as needed, but no less frequently than twice per week. “High Fat Diet” was the same standard rodent chow supplemented with the following: 11.5% corn oil, 11.5% coconut oil, 0.5% cholesterol, and 0.25% deoxycholate. This is also available directly from Dyets, Inc., as catalog #611201. Both diets were ordered in 10 kg batches and stored at 4° C. for durations of the experiments (4-8 weeks), and at −20° C. for longer storage (up to six months). Water and this high fat diet were available to this group of hamsters ad libitum. The “High Fat+Fructose” group was fed the same fat-supplemented chow as the “high fat diet” group (#611201), but water was supplemented with fructose to a final concentration of 10%. Fructose was supplied from Now Foods (catalog #6931) and distributed by Lucky Vitamin (catalog #WB48432). Fructose water was prepared by adding 400 g of fructose to 4 L of water and stirring at room temperature until dissolved. Fructose water was stored at 4° C. until use. When provided to hamsters, fructose water was kept in a water bottle in the hamster cages at room temperature, exactly as standard water was. Fructose water and high fat chow were provided to this group of hamsters ad libitum. All animals remained on their respective diets for 21 days.
To begin this experiment, hamsters were randomly assigned to groups defined by the diet modifications above. After a fixed time, blood was collected from hamsters (N=3-4) to determine the lipid contents of the plasma. Because of limitations in the ability to adequately collect blood from hamsters, all blood samples were obtained via a terminal cardiac puncture preceded by asphyxiation with carbon dioxide. Blood (approximately 2 mL volume) was collected with a 22 G needle into a 5 mL syringe and transferred to a K2EDTA tube. The samples were kept on ice until centrifugation (14,000 rpm for 10 minutes at 4° C.) to separate plasma. Plasma was then aliquoted to tubes for storage at −80° C. until analysis.
Lipid parameters were determined using commercially available kits from Wako USA (Richmond, Va.) according to manufacturer's directions.
Male Golden Syrian hamsters were purchased from Charles River Labs (111-120 g, 56-61 days) and acclimated to a high fat+fructose (herein, referred to as “HF/HS”) diet as described above for two weeks. Hamsters were assigned into cohorts by body weight after two weeks' acclimation to the diet. […] Hamsters were dosed once per day for a total of 18 days. All animals remained on the above-described HF/HS diet throughout the dosing period. Dosing solutions for each cohort were prepared for 7 days at a time, although enough was prepared to last for 8 days. Each solution was stored at room temperature between administrations. Cohorts were defined according to Table 2 below.

[2] = Human clinical trial, single oral doses: serum concentration; format: in vivo; conditions: in vivo, 1500 mg, read-out: Cmax
Description: Five periods of single dose escalation, with 8 subjects per cohort (6 drug: 2 placebo) involve a total 40 subjects. Appropriately blinded matching placebos are provided. Cohort 1 receives 500 mg of ARI-001 formulated as a single oral tablet, plus eleven placebo tablets; Cohort 2, […] of ARI-001, plus ten placebo tablets; Cohort 3, […] of ARI-001, plus eight placebo tablets; Cohort 4, […] of ARI-001, plus four placebo tablets; Corhort 5, […] of ARI-001. Placebo-only subjects take twelve placebo tablets. Each tablet is a compressed, film-coated tablet suitable for oral administration.
Pharmacokinetic samples are collected at 0-45 min pre-dose and at 0.5, 1, 1.5, 2, 4, 6, 8, 12, 24, 30 and 168 hours after dosing. […]
[…] […] Analysis of all samples is performed at a central laboratory.

[3] = Single oral dose pharmacokinetic comparison niacin, ARI-001, 2230C in wild type mice; format: in vivo, C57BL/6 mice; conditions: single bolus oral gavage, mouse plasma; for AUC / Cmax / Tmax / half-life: C57BL/6; for half-life: read-out: half-life (t1/2) (converted)
Text: Compound 2230C has the structure

| Cmax/AUC0-24 [3] | Compound | HDL/TC [1] | FFA (free fatty acids) ([1]; plasma) | HDL ([1]; plasma) | LDL ([1]; plasma) | TG (triglycerides) ([1]; plasma) | Cmax [2] | AUC [3] | Cmax [3] | Tmax [3] | half-life [3] | AUC (% Niacin) [3] | C24 h/Cmax [3] | Cmax (% Niacin) [3] |
| --- | --- | --- | --- | --- | --- | --- | --- | --- | --- | --- | --- | --- | --- | --- |
| – | O=C(O)c1cccnc1 [Niacin, nicotinic acid] | 0.17 ± 0.11 | 1.82 ± 0.69 mEq/L | 79 ± 26 mg/dL | 170 ± 52 mg/dL | 1555 ± 808 mg/dL | ~30000 ng/mL | 11700 µM·h | 4090 µM | 0.5 h | 1.75 h | 100 % Niacin | 0.02% | 100 % Niacin |
| 0.18 h⁻¹ | O=C(O)c1ccc(CCN2CCCC2)nc1 [Compound 2230C] | – | – | – | – | – | – | 686 µM·h | 126 µM | 0.31 h | 3.47 h | 5.8 % Niacin | 2.1% | 3.0 % Niacin |
